In brackets after ≈: the same amount, converted by molar mass. Structures can show the parent of a compound that is named as a salt. Where two headings read alike, the source gives them in different places.
What was measured:
Experiment in all cases: Antibacterial activity, minimum inhibition concentration (method of The Chemotherapy Association, Japan)
Assay type in all cases: cell-based
[1] = system: Proteus rettgeri NIH-96; details: Providencia rettgeri
Excerpt: (§1) The abbreviations A to P will be used in the following Tables 2 to 8.
(§2) Test results are shown in terms of the minimum inhibition concentration (µg/mℓ.) in the following Tables 2 to 8.

[2] = system: Proteus vulgaris OX-19; details: Proteus vulgaris
Excerpt: as §1, §2

[3] = system: Escherichia coli NIHJ; details: Escherichia coli, strain K: Escherichia coli NIHJ; read-out: minimum inhibition concentration
Outline: (§3)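 Potency read as minimum inhibitory concentration in µg/mℓ, following the method of The Chemotherapy Association, Japan.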

[4] = system: Proteus inconstans NIH-118; details: Providencia alcalifaciens
Outline: as §3

[5] = system: Enterobactor cloacae NCTC-9394; details: strain N: Enterobactor cloacae NCTC-9394; read-out: minimum inhibition concentration
Outline: as §3

[6] = system: Pseudomonas aeruginosa NCTC-10490; details: Pseudomonas aeruginosa
Outline: as §3

[7] = system: Staphylococcus aureus 6538-P
Outline: as §3

[8] = system: Salmonella typhimurium 3173; details: Salmonella enterica, TYPHIMURIUM, strain D: Salmonella typhimurium 3173; read-out: minimum inhibition concentration
Outline: as §3

[9] = system: Serratia marcescens IFO-3736; details: Serratia marcescens, IFO3736, strain F: Serratia marcescens IFO-3736; read-out: minimum inhibition concentration
Outline: as §3

[10] = system: Klebsiella pneumoniae; details: Klebsiella pneumoniae, strain C: Klebsiella pneumoniae; read-out: minimum inhibition concentration
Outline: as §3

[11] = system: Bacillus subtilis ATCC 6633; details: Bacillus subtilis, ATCC6633, strain B: Bacillus subtilis ATCC 6633; read-out: minimum inhibition concentration
Outline: as §3

[12] = system: Serratia marcescens 1023; details: Serratia marcescens, 1023, strain E: Serratia marcescens 1023; read-out: minimum inhibition concentration
Outline: as §3

[13] = system: Escherichia coli NIHJC-2; details: Escherichia coli, NIHJC2, strain L: Escherichia coli NIHJC-2; read-out: minimum inhibition concentration
Outline: as §3

[14] = system: Citrobactor freundii NIH-10018 -68; details: strain O: Citrobactor freundii NIH-10018 -68; read-out: minimum inhibition concentration
Outline: as §3

[15] = system: Proteus morgani Kono; details: strain J: Proteus morgani Kono; read-out: minimum inhibition concentration
Outline: as §3

[16] = system: Proteus mirabillis B-30-2 IFO-3849; details: strain G: Proteus mirabillis B-30-2 IFO-3849; read-out: minimum inhibition concentration
Outline: as §3

[17] = NIH96, strain I: Proteus rettgeri NIH-96, read-out: minimum inhibition concentration
[18] = OX19, strain H: Proteus vulgaris OX-19, read-out: minimum inhibition concentration
[19] = NIH118, strain P: Proteus inconstans NIH-118, read-out: minimum inhibition concentration
[20] = NCTC10490, strain M: Pseudomonas aeruginosa NCTC-10490, read-out: minimum inhibition concentration
[21] = strain A: Staphylococcus aureus 6538-P, read-out: minimum inhibition concentration

Compound | MIC [1, 17] | MIC [2, 18] | MIC [3] | MIC [4, 19] | MIC [5] | MIC [6, 20] | MIC [7, 21] | further results
Cn1nnnc1SCC1=C(C(=O)O)N2C(=O)C(NC(=O)C(=C(Cl)Cl)c3cccs3)C2SC1 (stereo not drawn) [Compound 39, 7-[2-dichloromethylene-2-(2-thienyl)acetamido]-3-(l-methyl-lH-tetrazol-5-yl)thiomethyl-3-cephem-4-carboxylic acid] | 0.05 mg/L (≈ 0.0937 µM) | 50 mg/L (≈ 93.7 µM) | 0.39 mg/L (≈ 0.731 µM) | 3.12 mg/L (≈ 5.86 µM) | 12.5 mg/L (≈ 23.4 µM) | 6.25 mg/L (≈ 11.7 µM) | 0.2 mg/L (≈ 0.375 µM) | 
CC(=O)OCC1=C(C(=O)O)N2C(=O)C(NC(=O)C(=C(Cl)Cl)c3ccsc3)[C@H]2SC1 (stereo partly shown) [Compound 40, 7-[2-dichloromethylene-2-(3-thienyl)acetamido]-3-acetoxymethyl-3-cephem-4-carboxylic acid] | 0.39 mg/L (≈ 0.817 µM) | 25 mg/L (≈ 52.4 µM) | 1.56 mg/L (≈ 3.27 µM) | 25 mg/L (≈ 52.4 µM) | 100 mg/L (≈ 209 µM) | 25 mg/L (≈ 52.4 µM) | 0.39 mg/L (≈ 0.817 µM) | 
CC(=O)OCC1=C(C(=O)O)N2C(=O)C(NC(=O)Cc3cccs3)C2SC1 (stereo not shown) [Cephalo-thin Na salt, reference compound] |  |  | 25 mg/L |  | > 100 mg/L |  |  | MIC ([1]; NIH96, read-out: minimum inhibition concentration, strain I: Proteus rettgeri NIH-96): > 100 mg/L; MIC ([2]; OX19, read-out: minimum inhibition concentration, strain H: Proteus vulgaris OX-19): > 100 mg/L; MIC ([4]; NIH118, read-out: minimum inhibition concentration): > 100 mg/L; MIC ([6]; NCTC10490, read-out: minimum inhibition concentration): > 100 mg/L; MIC ([7]; Staphylococcus aureus, 6538P, read-out: minimum inhibition concentration, strain A: Staphylococcus aureus 6538-P): 0.1 mg/L
CC(=O)OCC1=C(C(=O)O)N2C(=O)C(NC(=O)C(=C(Cl)Cl)c3cccs3)[C@H]2SC1 (stereo partly shown) [Compound 41, 7-[2-dichloromethylene-2-(2-thienyl)acetamido]-3-acetoxymethyl-3-cephem-4-carboxylic acid] | 50 mg/L (≈ 105 µM) | 0.39 mg/L (≈ 0.817 µM) | 0.39 mg/L (≈ 0.817 µM) | 1.56 mg/L (≈ 3.27 µM) | 50 mg/L (≈ 105 µM) | 25 mg/L (≈ 52.4 µM) | 0.2 mg/L (≈ 0.419 µM) | 
CC(=O)OCC1=C(C(=O)O)N2C(=O)C(NC(=O)C(=C(Cl)Cl)c3ccc(Cl)c(Cl)c3)[C@H]2SC1 (stereo partly shown) [Compound 30, 7-[2-dichloromethylene-2-(3,4-dichlorophenyl)acetamido]-3-acetoxymethyl-3-cephem-4-carboxylic acid] | 6.25 mg/L (≈ 11.6 µM) | > 100 mg/L | 100 mg/L (≈ 185 µM) |  | > 100 mg/L | 100 mg/L (≈ 185 µM) | 100 mg/L (≈ 185 µM) | MIC [8]: > 100 mg/L; MIC [9]: > 100 mg/L; MIC [10]: > 100 mg/L; MIC [11]: 0.78 mg/L (≈ 1.44 µM); MIC [12]: 6.25 mg/L (≈ 11.6 µM); MIC [13]: > 100 mg/L; MIC [14]: > 100 mg/L; MIC [15]: > 100 mg/L; MIC [16]: > 100 mg/L
